Where “and” joins values, the source holds several entries; their conditions need not be identical. Equal entries are not always repeated. Where two headings read alike, the source gives them in different places.
How the values were obtained:
MIA PaCa-2 [1] = test: 24 and 48 h chemosensitivity (MTT, with recovery period); assay type: cell-based, human
Description: (§1) LogP = Log ( [C]final ) Eqn1
(§2) 96 h Chemosensitivity Studies
(§3) In vitro chemosensitivity tests were performed at both the University of Huddersfield and the Institute of Cancer Therapeutics, Bradford, in a sterile Class II Biological Safety Cabinet fitted with a HEPA filtered laminar airflow.
(§4) Cellular assays were conducted against human pancreatic carcinoma (MIA PaCa-2), human colorectal carcinoma p53-wildtype (HCT116 p53+/+), and human non-cancerous epithelial retinal cells (ARPE-19). The ARPE-19 cells were obtained from the American Type Culture Collection and provided by the University of Huddersfield. All cell lines were routinely maintained as monolayer cultures in appropriate complete medium and maintained in either T-25 or T-75 flasks at 37 °C and 5% CO2. MIA PaCa-2 and ARPE-19 cells were cultured in high glucose DMEM-F12 medium containing 10% foetal calf serum, and HCT116 p53+/+ was cultured in RPMI 1640 supplemented with 10% foetal calf serum. All medium was supplemented with sodium pyruvate (1 mM) and L-glutamine (2 mM), and prior to chemosensitivity studies, cell monolayers were passaged using Trypsin-EDTA and diluted to a concentration of 1 x 10^4 cells/mL. All assays were conducted using 96-well plates, in which 100 mL of the 1 x 10^4 cells/mL cell suspension was added to each well and incubated for 24 h at 37 °C and 5% CO2. After 24 h, 100 mL of drug dilutions (fresh 100 mM stock solutions in DMSO) in media were added to the plates and then incubated for a further 96 h at 37°C and 5% CO2 (48 h + 48 h recovery period were used for the shorter exposures with MIA PaCa-2 cells only). After 96 h, 20 mL MTT (3-(4,5-dimethylthiazol-2-yl)-2,5-diphenyltetrazolium bromide, 5 mg/mL) was added to each well and incubated for 3 h at 37 °C and 5% CO2. All solutions were then removed from the 96-well plates via pipette and 150 mL of DMSO added to each well to dissolve the purple formazan crystals. After mixing well, the absorbance of each well was measured at 540 nm using a ThermoFisher Multiskan FC spectrophotometer microplate reader. Using the blank and 100% cell controls, the % cell viability was determined [(abs. of compound containing wells – abs. media wells)/(abs. 100% cell suspension well control)] and from this the % cell death (100%- % cell viability) was calculated. On a logarithmic scale, the percentage cell death was plotted against the concentration of compound, and from this the half maximal inhibitory concentration (IC50) value was determined. Each of the experiments were performed in triplicate with mean values being stated as the IC50 ± Standard Deviation (SD).
24 and 48 h Chemosensitivity Studies
The same experimental protocol described for the 96 h MTT assay was used, and the MIA PaCa-2 cells were incubated for either 24 or 48 h, with a 72 or 48 h recovery period respectively. […]
(§5) All assays were conducted in triplicate.

MIA PaCa-2 [2] = assay type: cell-based; settings: for IC50: 96 h MTT, normoxic, ± SD, read-out: IC50 against MIA PaCa-2; for Selectivity index (SI), IC50 ARPE-19 / IC50 MIA PaCa-2: 96 h, * = minimum value as at least one IC50 > 100
Description: as §1, §2, §3
Cellular assays were conducted against human pancreatic carcinoma (MIA PaCa-2), human colorectal carcinoma p53-wildtype (HCT116 p53+/+), and human non-cancerous epithelial retinal cells (ARPE-19). […]
were obtained from the American Type Culture Collection and provided by the University of Huddersfield. All cell lines were routinely maintained as monolayer cultures in appropriate complete medium and maintained in either […]
T-25 or T-75 flasks at 37 °C and 5% CO2.
10% foetal calf serum. All medium was supplemented with sodium pyruvate (1 mM) and L-glutamine (2 mM), and prior to chemosensitivity studies, cell monolayers were passaged using Trypsin-EDTA and diluted to a […]
cells/mL cell suspension was added to each well and incubated for 24 h at 37 °C and 5% CO2. After 24 h, 100 mL of drug dilutions (fresh 100 mM stock solutions in DMSO) in media were added to the plates and then incubated for a further 96 h at 37°C and 5% CO2 (48 h + 48 h recovery period were used for the shorter exposures with MIA PaCa-2 cells only). After 96 h, 20 mL MTT (3-(4,5-dimethylthiazol-2-yl)-2,5-diphenyltetrazolium bromide, 5 mg/mL) was added to each well and incubated for 3 h at 37 °C and 5% CO2. All solutions were then removed from the 96-well plates via pipette and […] of DMSO added to each well to dissolve the purple formazan […]
FC spectrophotometer microplate reader. Using the blank and 100% cell controls, the % cell viability was determined [(abs. of compound containing wells – abs. media wells)/(abs. 100% cell suspension well control)] and from this the % cell death (100%- % cell viability) was calculated. On a logarithmic scale, the percentage cell death was plotted against the concentration of compound, and from this the half maximal inhibitory concentration (IC50) value was determined. Each of the experiments were performed in triplicate with mean values being stated as the IC50 ± Standard Deviation (SD). […]

HCT116 p53+/+ = test: 96 h MTT chemosensitivity assay; assay type: cell-based, human; settings: for Selectivity index (SI), IC50 ARPE-19 / IC50 HCT116 p53+/+: 96 h, * = minimum value as at least one IC50 > 100; for IC50: 96 h MTT, ± SD, read-out: IC50 against HCT116 p53+/+
Description: as §1, §2, §3
as §4, with “(SD). […]” for “(SD).”
as §5

ARPE-19 = test: 96 h MTT chemosensitivity assay, normal cells; assay type: cell-based, human; settings: normal retinal epithelial cells, ± SD, read-out: IC50 against ARPE-19
Description: as §1, §2, §3
as §4, with “After 24 h, 100 mL of drug dilutions (fresh 100 mM stock solutions in DMSO) in media were added to the plates and then incubated for a further 96 h at 37°C and 5% CO2 (48 h + 48 h recovery period were used for the shorter exposures with MIA PaCa-2 cells only). After 96 h, 20 mL MTT (3-(4,5-dimethylthiazol-2-yl)-2,5-diphenyltetrazolium bromide, 5 mg/mL) was added to each well and incubated for 3 h at 37 °C and 5% CO2. All solutions were then removed from the 96-well plates via pipette and 150 mL of DMSO added to each well to dissolve the purple formazan crystals.” left out, “Each of the experiments were performed in triplicate with mean values being stated as the IC50 ± Standard Deviation (SD).” left out

MIA PaCa-2 [3] = test: Chemosensitivity under hypoxic conditions (0.1% O2, 96 h MTT); assay type: cell-based, human; settings: MIA PaCa-2, 0.1% O2, 96 h MTT
Description: as §1, §2, §3
as §4, with “After 24 h, 100 mL of drug dilutions (fresh 100 mM stock solutions in DMSO) in media were added to the plates and then incubated for a further 96 h at 37°C and 5% CO2 (48 h + 48 h recovery period were used for the shorter exposures with MIA PaCa-2 cells only). After 96 h, 20 mL MTT (3-(4,5-dimethylthiazol-2-yl)-2,5-diphenyltetrazolium bromide, 5 mg/mL) was added to each well and incubated for 3 h at 37 °C and 5% CO2. All solutions were then removed from the 96-well plates via pipette and 150 mL of DMSO added to each well to dissolve the purple formazan crystals.” left out, “Each of the experiments were performed in triplicate with mean values being stated as the IC50 ± Standard Deviation (SD).” left out

MIA PaCa-2 [4] = settings: read-out: IC50 against MIA PaCa-2 (previously reported analogue); cited from earlier work

IC50 (MIA PaCa-2 [1]; MIA PaCa-2, 24 h exposure + 72 h recovery, read-out: IC50 values ± SD, 24 h) [µM] | IC50 (MIA PaCa-2 [1]; MIA PaCa-2, 48 h exposure + 48 h recovery, read-out: IC50 values ± SD, 48 h) [µM] | E0′ (Fc*/Fc*+) (Cyclic voltammetry; 0.1 M TBAPF6 in acetonitrile, vs SCE, Fc/Fc+ = 0.40 V internal standard) [V] | EP Red (Cyclic voltammetry; irreversible reduction, vs SCE) | E0’ (Fc*/Fc*+) at 0.05 V/s (Cyclic voltammetry; scan speed 0.05 V/s) [V] | E0’ (Fc*/Fc*+) at 0.10 V/s (Cyclic voltammetry; scan speed 0.10 V/s) [V] | E0’ (Fc*/Fc*+) at 0.25 V/s (Cyclic voltammetry; scan speed 0.25 V/s) [V] | Molecule | IC50 (MIA PaCa-2 [2]) [µM] | Selectivity index (SI), IC50 ARPE-19 / IC50 HCT116 p53+/+ (HCT116 p53+/+) | IC50 (HCT116 p53+/+) [µM] | Selectivity index (SI), IC50 ARPE-19 / IC50 MIA PaCa-2 (MIA PaCa-2 [2]) | IC50 (ARPE-19) | IC50 under hypoxic conditions (MIA PaCa-2 [3]) | IC50 (MIA PaCa-2 [4]) [nM]
> 100 | 43 ± 1 | 0.63 | –1.70 V | 0.64 | 0.63 | 0.63 | O=C(C=C(O)c1ccco1)[c-]1cccc1.[Fe+2].c1cc[cH-]c1 [Complex L4] | 42.1 ± 0.8 |  |  |  |  |  | 
 |  |  |  |  |  |  | O=C1[O][Pt]2([NH][C@@H]3CCCC[C@H]3[NH]2)[O]C1=O [OXA, oxaliplatin, reference compound] | 6 ± 1 | 3.2 | 0.9 ± 0.1 | 0.5 | 3 µM and 6 µM | decrease in cytotoxicity | 
 |  |  |  |  |  |  | [(bpy)2(Fc-acac)Ru][PF6] [Figure 1F] |  |  |  |  |  |  | 110 ± 10
 |  |  |  |  |  |  | N.N.O=C([O-])C1(C(=O)[O-])CCC1.[Pt+2] [CARB, carboplatin, reference compound] | 36 ± 3 | 2.4 | 32 ± 11 | 2.2 | 77 ± 10 µM |  | 

Source: PMC10428205, “Cytotoxicity of Ruthenium(II) Arene Complexes Containing Functionalized Ferrocenyl β-Diketonate Ligands” (Organometallics, 2023)
